Several values for one entry are separate records, joined by “and”; a condition that tells them apart may be missing. Equal values may be shown once.
Key:
[1] = RB5 brain levels by HPLC-MS/MS; format: in vivo, mouse; parameters: Brain levels measured with mass spectrometry: unit not given here; conditions: single 20 mg/kg i.p.; for Brain levels measured with mass spectrometry: mouse brain homogenate, individual mice, 20 mg/kg
Procedure: RB5 was quantified in the mouse brain using HPLC‐MS/MS. Brain samples were homogenized with 1:4 w/v of 50% acetonitrile 5% TFA in water with a homogenizer ultra‐turrax and then centrifuged at 13,000 rpm for 10 min at 4°C. The supernatant was collected and centrifuged at 15,871 g for 2 min at 4°C. The supernatant was then collected on ice, extracted using Sep‐Pak cartridges C18, lyophilized and kept at 4°C before HPLC‐MS/MS analysis. Immediately before the analysis, samples were suspended in 100 μl of 0.1% HCOOH in water/8% acetonitrile in auto‐sampler vials.
HPLC‐MS/MS analysis was performed using a system consisting of an Agilent 1200 series HPLC system coupled with an Agilent 6410 Triple Quadruple mass spectrometer. Mass Hunter Workstation v. B.01.03 software was used for data collection and processing (Agilent Technologies, Santa Clara, California, US). The quantification of brain levels of RB5 and Scramble peptides was carried out using an internal standard curve with peptide concentrations ranging from 0.1 to 4 ng/μl. RB5 and Scramble peptides, and the internal standard were separated at room temperature by injecting 10 μl of extracted sample onto a Jupiter C4 300 A analytical column, 2 × 150 mm, 5 μm particle size (Phenomenex, CA). Gradient elution was used for chromatographic separation, using 0.1% formic acid in water as solvent A and acetonitrile as solvent B at a flow rate of 200 μl/min. The elution started with 92% of eluent A and 8% of eluent B maintained for 1 min, followed by a 4 min linear gradient to 75% of eluent B, a 1 min linear gradient to 99% of eluent B, a 2 min isocratic elution, and a 0.5 min linear gradient to 8% of eluent B, which was maintained for 9.5 min to equilibrate the column. The samples were maintained at 4°C in the autosampler.
Peptides were then detected on an Agilent 6410 QQQ mass spectrometer using the following parameters: positive ion mode, 5 kV capillary voltage, cone voltage 500 V, gas flow rate 8 l/min at 350°C, nebulizer gas pressure 40 PSI at 350°C, well time 75 msec and Q1 and Q3 set to unit resolution.

pELK = experiment: Striatal pELK immunohistochemistry 1 h after single injection; format: in vivo, mouse; conditions: single injection 20 mg/kg i.p., individual mice
Procedure: Immunohistochemistry was performed as described in Papale et al ([2016]). Briefly, 1 h after blocking in 5% normal goat serum and 0.1% Triton X‐100 solution, free‐floating sections were incubated overnight at 4°C with one of the following primary antibodies: anti‐phospho‐p44/42 MAP kinase (Thr202/Tyr204) (1:200, Cell Signaling Technology #9101), anti‐phospho–Elk‐1 (Ser383) (1:100, Cell Signaling #9181), anti‐phospho‐Kv4.2 (Thr607)‐R (1:100, Santa Cruz sc22254‐R), anti‐phospho‐MSK‐1 (1:100 Cell Signaling Technology #9595), anti‐phospho‐MEK1/2 (Ser218/222) (1:100, sc‐7995 Santa Cruz Biotechnology), c‐Fos (1:100, sc‐52 Santa Cruz Biotechnology), tyrosine Hydroxylase (monoclonal 1:1,000, Sigma Aldrich, Italy) and anti‐DARPP‐32 (H3) (1:100, Santa Cruz Biotechnology, #sc‐271111) overnight at 4°C. […]
For in vivo immunohistochemistry experiments, images were acquired from the dorsal striatum using a Leica DM IRB microscope under a 20× objective. The number of p‐ERK, p‐MSK‐1, p‐ELK, p‐MEK‐1, p‐VG K+, c‐Fos, and DARPP‐32 positive cells was counted in 2–3 consecutive sections per mouse, bilaterally and averaged across the sections using the ImageJ software by a blind investigator to the condition. Estimation of nigral cell loss was assessed by quantifying the number of TH‐immunopositive neurons of the SNc in 360 μm‐spaced sections for each animal.

contextual fear memory = experiment: Contextual fear conditioning, rats, intra-hippocampal infusion; format: in vivo, rat; parameters: unit not given here; conditions: 2 mg/ml, 1.0 μl/side into dorsal hippocampus 20 min prior to conditioning, individual rats
Procedure: Lister Hooded male rats (280–350 g) were housed in pairs, in holding rooms maintained at 21°C on a reversed‐light cycle (12 h light/dark; lights on at 10:00 P.M.). All experiments were conducted in the dark period of the rats. RB5 and Scramble peptides were infused into dorsal hippocampus.
Steel double guide cannulae aimed at the dorsal hippocampus (AP ‐3.50, relative to bregma) were surgical implanted under anesthesia at least 1 week prior to behavioral training and microinfusions. Bilateral infusions with either 2 mg/ml Scramble or RB5, 20 min prior to conditioning (pH 7.0, 1.0 μl/side, rate = […]) via the chronically indwelling cannula were carried out in awake rats using a syringe pump, connected to injectors (28 gauge, projecting 1 mm beyond the guide cannulae) by polyethylene tubing.
Conditioning was performed in one of two distinct contexts. These contexts were designed to differ in a number of distinctive characteristics including size, spatial location, odor, and lighting. During the 3 min conditioning training trial, rats received a single scrambled footshock (0.5 mA for 2 s) 2 min after being placed into one of the conditioning contexts. All rats were returned to the home cages after conditioning. Retrieval tests 3 h (postretrieval short‐term memory, STM), or 2 days (long‐term memory, LTM) after recall again consisted of exposing the rat to the conditioning context for 2 min not delivering a foot shock.
For all protocols, freezing behavior served as a measure of conditioned fear to the context during the conditioning and retrieval tests.

Substance | Brain levels measured with mass spectrometry ([1]; 1 h) | pELK positive cells in striatum (pELK) | Freezing behavior (contextual fear memory; LTM, 2 days) | Freezing behavior (contextual fear memory; PostUS) | Freezing behavior (contextual fear memory; PreUS) | Freezing behavior (contextual fear memory; STM, 3 h) | Time RB5 is detectable in brain postinjection (mass spectrometry) ([1]; mice) | Brain levels measured with mass spectrometry ([1]; 3 h) | Brain levels measured with mass spectrometry ([1]; 6 h) | Brain levels measured with mass spectrometry ([1]; 12 h)
SCR: ineffective Scramble version of RB5 containing a TAT sequence (GRKKRRQRRRPPRVGPGVPEGVGVAVFGVKEPGQTGDVGPVGE) [reference compound] | 6.434 and 8.14 | 323.81 and 423.81 and 452.381 and 228.571 and 433.333 and 633.333 and 371.429 and 404.762 and 166.667 and 219.048 and 309.524 and 280.952 and 295.238 and 195.238 and 133.333 | 33.3 (3×) and 58.3 and 16.7 (2×) | 16.7 (2×) and 50 (2×) and 33.3 and 0 | 0 | 33.3 (2×) and 41.7 and 16.7 and 25 and 8.3 |  |  |  | 
GRKKRRQRRRPPQGGGGGEPRRTEGVGPGVPGEVEMVKGQPFDV [RB5, six D-amino acids, acetylated N-terminus] | 92.2252 and 89.7022 and 75.321 and 38.8889 and 66.5288 | selectively activated and 980.952 and 828.571 and 933.333 and 1047.62 and 938.095 and 852.381 and 1080.95 and 1147.62 and 700 and 838.095 and 761.905 and 809.524 and 871.429 and 766.667 | markedly enhanced and 33.3 and 58.3 and 83.3 and 50 | markedly enhanced and 83.3 and 66.7 | 0 | markedly enhanced and 58.3 and 75 and 91.7 and 50 and 66.7 | up to 6 h | 119.5 and 39.8058 and 101.408 and 83.7545 and 96.934 | 57.0702 and 47.9263 and 56.5714 and 68.7679 and 72.8353 | 8.439 and 16.5056 and 9.465 and 6.558
